# Measured values taken from PMC8637440, “Structural Modifications Yield Novel Insights Into the Intriguing Pharmacodynamic Potential of Anti-inflammatory Nitro-Fatty Acids” (Frontiers in Pharmacology, 2021).
# Several values for one entry are separate records, joined by “and”; a condition that tells them apart may be missing. Identical values can stand only once.
# Tests used:
# [1] = test system: HT-29 cells; assay: WST-1 cell viability assay, HT-29; type: cell-based, human; details: n.i. = no inhibition observed; for IC50: Homo sapiens, HT-29, 48 h
# Procedure: (§1) Cell viability was analyzed with the WST-1 assay based on the cleavage of the stable tetrazolium salt WST-1 by the mitochondrial reductase system. Cells were seeded in the appropriate densities in a clear 96-well plate and settled overnight at 37°C in 5% CO2. The next day, the cells were treated with NFA or the substances of interest (≤0.1% dimethyl sulfoxide [DMSO]) and incubated for 24 or 48 h at 37°C in 5% CO2. Cell viability was analyzed by adding 10 µl WST-1 solution (Roche, Basel, Switzerland) and subsequently incubating the cells at 37°C for another 30–40 min. Absorbance was measured at 450 nm with a control wavelength at 620 nm using a plate reader.
# (§2) Besides targeting the NF-κB pathway, the anti-tumorigenic effects of NFA can be observed by a reduction of colorectal cancer cell viability. […] Again, the cytotoxic effects of NFA were determined in HCT-116 and HT-29 colorectal cancer cells in the present study. […] HCT-116 cells were treated with increasing concentrations of NFA differing in chain length and Michael acceptor position for 24 h, and cell viability was determined using the WST-1 assay. Due to their prolonged cell division rate and their lack of sensitivity towards NFA ([Kühn et al., 2018]), HT-29 cells were treated for 48 h to gain improved NFA activity.
# [2] = test system: HCT-116 cells; assay: WST-1 cell viability assay, HCT-116; type: cell-based, human; details: for IC50: Homo sapiens, HCT-116; for cytotoxic potency higher compared to 9NOA: HCT-116 and HT-29 cells
# Procedure: as §1, §2
# [3] = target: T1, 15-LO (Homo sapiens, UniProt P16050); assay: 15-HETE formation in intact PMNL preparations, A23187 + 20 µM AA; type: cell-based; details: 15 min preincubation, A23187 2.5 µM + 20 µM AA, n.i. = no inhibition observed; for PMNL (20 µM AA) 15-HETE IC50: intact PMNL; for IC50: PMNL (20 µM AA) 15-HETE IC50, intact PMNL
# T1 construct: endogenous in cells; host or cells: eosinophils in human PMNL preparations
# T1 sequence (P16050 1-662): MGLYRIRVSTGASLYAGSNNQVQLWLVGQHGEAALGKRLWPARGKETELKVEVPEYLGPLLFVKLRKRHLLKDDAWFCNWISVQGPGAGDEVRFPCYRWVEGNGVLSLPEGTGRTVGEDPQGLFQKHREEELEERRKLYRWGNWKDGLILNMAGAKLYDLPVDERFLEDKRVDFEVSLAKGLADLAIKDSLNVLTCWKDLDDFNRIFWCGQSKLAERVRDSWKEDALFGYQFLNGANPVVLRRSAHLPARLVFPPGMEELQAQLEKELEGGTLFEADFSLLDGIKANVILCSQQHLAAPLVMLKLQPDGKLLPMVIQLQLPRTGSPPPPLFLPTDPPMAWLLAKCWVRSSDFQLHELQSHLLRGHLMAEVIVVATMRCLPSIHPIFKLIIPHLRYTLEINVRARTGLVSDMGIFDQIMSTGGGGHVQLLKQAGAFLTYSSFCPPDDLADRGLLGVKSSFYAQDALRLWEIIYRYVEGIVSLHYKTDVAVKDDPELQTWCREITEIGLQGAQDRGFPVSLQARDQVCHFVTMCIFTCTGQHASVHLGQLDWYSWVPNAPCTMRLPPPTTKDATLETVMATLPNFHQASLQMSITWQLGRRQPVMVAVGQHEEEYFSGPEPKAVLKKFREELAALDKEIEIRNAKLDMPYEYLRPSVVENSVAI
# Procedure: Buffy coats from different donors of different blood types were commercially obtained from DRK Blutspendedienst Baden-Württemberg Institute Frankfurt. Donors have given their written consent. […] Following separation, the supernatant was transferred very gently to new 50-ml tubes containing lymphocyte separation medium (LSM) and centrifuged for 10 min at 800 ×g at RT with the centrifuge brake turned off. Afterwards, the supernatant was decanted carefully to discard the platelets and monocytes. The PMNL were washed with 1× PBS before the residual erythrocytes were lysed in two cycles: the cell pellet was resuspended with 10 ml H2O and vortexed for 45 s, and lysis was stopped with 40 ml 1 × PBS. After 10-min centrifugation at 200 ×g at RT, the cycle was repeated once. The supernatant was aspirated, the cell pellet resuspended in 5 ml PBS/glucose and initially separated PMNL preparations with different blood types were finally pooled to gain a sufficient number of cells. […] The enzyme was diluted in PBS/EDTA/ATP, transferred into 5-ml glass tubes, and stored on ice. […] The reaction was stopped by placing the glass tubes on ice. The supernatants were transferred to 1.5 ml reaction tubes and stored at −80°C before LC-MS (liquid chromatography and mass spectrometry) analysis of LTB4 and HETEs as described in 2.6 at the Institute of Pharmacology, Goethe University, University Hospital, Germany. The lipid mediators LTB4, hydroxyeicosatetraenoic acids, 5(S)-HETE, 12(S)-HETE, 15(S)-HETE and 20-HETE were analyzed using liquid chromatography tandem-mass spectroscopy (LC-MS/MS). The LC-MS/MS system consisted of a 5500 QTrap mass spectrometer (Sciex, Darmstadt, Germany), operating in negative ESI mode, an Agilent 1200 HPLC system (Agilent, Waldbronn, Germany) and an HTC Pal autosampler (Chromtech, Idstein, Germany). Sample extraction of LTB4 and HETEs were performed using liquid-liquid extraction: 200 µl of the sample were gently mixed with 20 µl of methanol and 20 µl of internal standard solution and extracted twice with 600 µl ethyl acetate. […] Working solutions of all analytes were prepared in methanol containing 0.1% BHT. The calibration standards were prepared by further dilution of the working standards. […] The residues were reconstituted in 50 µl of methanol:water:BHT (50:50:10^−4, v/v/v) prior to injection into the LC-MS/MS system. Chromatographic separation was achieved using a Gemini NX C18 column (150 mm × 2 mm ID, 5 µm, Phenomenex, Aschaffenburg, Germany) with a precolumn of the same material. A linear gradient was employed at a flow rate of 0.5 ml/min and a total run time of 17.5 min. Mobile phases were A water:ammonia (100:0.05, v/v) and B acetonitrile:ammonia (100:0.05, v/v). […] All data were acquired using Analyst software v1.6.2 and quantitation was performed by MultiQuant software v3.0 (both Sciex, Darmstadt, Germany) using the internal standard method (isotope-dilution mass spectrometry). Calibration curves were calculated by linear regression with 1/x.
# [4] = WST-1 cell viability, 24 h, n.i. = no inhibition observed
SMILES,IC50 [1],"IC50 [2, 4]",PMNL (20 µM AA) 15-HETE IC50 [3],IC50 [3],cytotoxic potency higher compared to 9NOA [2],HT-29 (48 h) IC50 [1],"HCT-116 (24 h) IC50 [2, 4]"
"CCCCCCCCCCCC(=CCCCCC(=O)O)[N+](=O)[O-] [18.6.7, 7-nitro-octadec-6-enoic acid]",13.8 ± 1.1 µM,8.1 ± 1.1 µM,–,17.3 ± 1.1 µM,–,–,–
"CCCCCCCCCC=C(CCCCCCC(=O)O)[N+](=O)[O-] [18.8.8, 8-nitro-octadec-8-enoic acid]",3.3 ± 1.1 µM,2.1 ± 1.1 µM,–,16 ± 1.1 µM,> 2 fold,–,–
"CCCCCCCCCC(=CCCCCCCC(=O)O)[N+](=O)[O-] [18.8.9, 9-nitro-octadec-8-enoic acid]",8 ± 1.1 µM,4.6 ± 1.1 µM,–,23.4 ± 1.3 µM,–,–,–
"CCCCCCCCC=C(CCCCCCCC(=O)O)[N+](=O)[O-] [18.9.9, 9-nitro-octadec-9-enoic acid]",8.8 ± 1.1 µM,6.4 ± 1.2 µM,–,17.6 µM and 20.4 µM,–,–,–
"CCCCCCCC=C(CCCCCCCCC(=O)O)[N+](=O)[O-] [18.10.10, 10-nitro-octadec-10-enoic acid]",13.9 ± 1.1 µM,13.6 ± 1.1 µM,–,19.6 ± 1.1 µM,–,–,–
"CCCCCCC=C(CCCCCCCCCC(=O)O)[N+](=O)[O-] [18.11.11, 11-nitro-octadec-11-enoic acid]",16.6 ± 1.1 µM,16 ± 1.1 µM,–,26 ± 1.3 µM,–,–,–
"CCCCCCCC/C=C\CCCCCCCC(=O)O [OA, oleic acid, reference compound]",–,–,not affected and n.i.,–,–,failed to induce cytotoxic effects and n.i.,failed to induce cytotoxic effects and n.i.

# Further compounds by falling IC50 [1], results first:
IC50 [1],"IC50 [2, 4]",PMNL (20 µM AA) 15-HETE IC50 [3],IC50 [3],SMILES,cytotoxic potency higher compared to 9NOA [2],HT-29 (48 h) IC50 [1],"HCT-116 (24 h) IC50 [2, 4]"
~31.5 µM,23.1 ± 1.1 µM,n.i.,–,"CCC=C(CCCCCCCC(=O)O)[N+](=O)[O-] [12.9.9, 9-nitro-dodec-9-enoic acid]",–,–,–
27.4 ± 1 µM,16.8 ± 1.1 µM,n.i.,–,"CCCCC=C(CCCCCCCC(=O)O)[N+](=O)[O-] [14.9.9, 9-nitro-tetradec-9-enoic acid]",–,–,–
23.9 ± 1.1 µM,18.6 ± 1.1 µM,–,7.7 ± 1.2 µM,"CCCCCCCCCCCCCC=C(CCC(=O)O)[N+](=O)[O-] [18.4.4, 4-nitro-octadec-4-enoic acid]",–,–,–
18.5 ± 1.1 µM,11.6 ± 1.1 µM,–,8.9 ± 1.2 µM,"CCCCCCCCCCCCC=C(CCCC(=O)O)[N+](=O)[O-] [18.5.5, 5-nitro-octadec-5-enoic acid]",–,–,–
15.7 ± 1.1 µM,13.5 ± 1.1 µM,–,20.5 ± 1.3 µM,"CCCCCCCCC(=CCCCCCCCC(=O)O)[N+](=O)[O-] [18.9.10, 10-nitro-octadec-9-enoic acid]",–,–,–
12.7 ± 1.1 µM,10.5 ± 1.1 µM,n.i.,–,"CCCCCCC=C(CCCCCCCC(=O)O)[N+](=O)[O-] [16.9.9, 9-nitro-hexadec-9-enoic acid]",–,–,–
11.1 ± 1.1 µM,7.6 ± 1.1 µM,–,14.8 ± 1.1 µM,"CCCCCCCCCCCC=C(CCCCC(=O)O)[N+](=O)[O-] [18.6.6, 6-nitro-octadec-6-enoic acid]",–,–,–
8.1 ± 1.1 µM,5.4 ± 1.1 µM,–,21.2 ± 1.1 µM,"CCCCCCCCCCC=C(CCCCCCCC(=O)O)[N+](=O)[O-] [20.9.9, 9-nitro-eicos-9-enoic acid]",–,–,–
4.4 ± 1.1 µM,2.7 ± 1.1 µM,–,7.6 ± 1.1 µM,"CCCCCCCCCCC=C(CCCCCC(=O)O)[N+](=O)[O-] [18.7.7, 7-nitro-octadec-7-enoic acid]",> 2 fold,–,–
